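A five-concentration, 48-hour dose response in 96-well plates underlies each endpoint, interpolated linearly between surrounding concentrations. GI50 is the concentration that inhibits growth by half. The concentration for full growth arrest is given as TGI.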
What was measured:
Experiment in all cases: NCI-60 cell line screen, 48 h
A498 renal = tested on: A498 renal
ACHN renal = tested on: ACHN renal
EKVX NSCLC = tested on: EKVX NSCLC
HCT-116 colon = tested on: HCT-116 colon
HOP-92 NSCLC = tested on: HOP-92 NSCLC
KM12 colon = tested on: KM12 colon
NCI-H460 lung = tested on: NCI-H460 lung
RXF 393 renal = tested on: RXF 393 renal
TK-10 renal = tested on: TK-10 renal
U251 CNS = tested on: U251 CNS

Row | Structure (SMILES) | TGI (A498 renal) | TGI (ACHN renal) | TGI (EKVX NSCLC) | TGI (HCT-116 colon) | TGI (HOP-92 NSCLC) | TGI (KM12 colon) | TGI (NCI-H460 lung) | TGI (RXF 393 renal) | TGI (TK-10 renal) | TGI (U251 CNS) | GI50 (A498 renal) | GI50 (ACHN renal) | GI50 (EKVX NSCLC) | GI50 (HCT-116 colon) | GI50 (HOP-92 NSCLC) | GI50 (KM12 colon) | GI50 (NCI-H460 lung) | GI50 (RXF 393 renal) | GI50 (TK-10 renal) | GI50 (U251 CNS)
1 | COC(=O)C12CCC(C)(C)CC1C1=CCC3C4(C)CC(O)C(O)C(C)(C(=O)OC)C4CCC3(C)C1(CO)CC2 (configuration not stated) | 33.2 µM | 27.2 µM | 44.1 µM | 27.4 µM | 29.1 µM | 22.3 µM | 31.5 µM | 19.5 µM | 33.7 µM | 39.8 µM | – | – | – | – | – | – | – | – | – | –
2 | COC(=O)Cc1c([C@@]2(C)CCCC(C)(C)C2)ccc2c1C(=O)OC2 | 41.8 µM | 48.2 µM | 59.7 µM | 22 µM | 8.38 µM | 30.6 µM | 33.3 µM | 27.9 µM | 59.3 µM | 29.7 µM | – | – | – | – | – | – | – | – | – | –
3 | N#CC1C[C@@H]2CC3(CCC2CN1C(=O)c1ccccc1)OCCO3 (some centres not stated) | > 100 µM | > 100 µM | > 100 µM | > 100 µM | > 100 µM | > 100 µM | > 100 µM | > 100 µM | > 100 µM | > 100 µM | – | – | – | – | – | – | – | – | – | –
4 | O=C(Cn1c(C(=O)c2ccc(Cl)cc2)nc(-c2ccc(Cl)cc2)c1-c1ccc(Cl)cc1)c1ccccc1 | > 100 µM | > 100 µM | > 100 µM | > 100 µM | > 100 µM | > 100 µM | > 100 µM | > 100 µM | > 100 µM | > 100 µM | > 100 µM | > 100 µM | > 100 µM | > 100 µM | 12.9 µM | > 100 µM | > 100 µM | > 100 µM | > 100 µM | > 100 µM
5 | C/C(CCC(=O)O)=N/Nc1ccc([N+](=O)[O-])cc1 | > 100 µM | > 100 µM | > 100 µM | > 100 µM | > 100 µM | > 100 µM | > 100 µM | > 100 µM | > 100 µM | > 100 µM | > 100 µM | 2.19 µM | 28.5 µM | 4.31 µM | > 100 µM | 0.839 µM | 3.12 µM | > 100 µM | > 100 µM | > 100 µM
6 | CC1CCC2C(C)C(=O)OC3OC4(C)CCC1C32OO4 (configuration not stated) | > 100 µM | > 100 µM | > 100 µM | > 100 µM | > 100 µM | > 100 µM | > 100 µM | > 100 µM | > 100 µM | > 100 µM | > 100 µM | > 100 µM | – | – | > 100 µM | > 100 µM | > 100 µM | – | > 100 µM | > 100 µM
7 | CCn1c(-c2nonc2N)nc2c(C#CC(C)(C)O)ncc(OC3CCNCC3)c21 | 13.4 µM | > 25 µM | > 25 µM | > 25 µM | > 25 µM | > 25 µM | > 25 µM | 13.3 µM | > 25 µM | > 25 µM | 0.0958 µM | > 25 µM | > 25 µM | 8.15 µM | > 25 µM | 4.52 µM | 6.86 µM | 2.84 µM | 6.6 µM | 3.74 µM

From PubChem BioAssay (NCI)
